What was measured:
[1] = target: hCRTH2 receptor (Homo sapiens (Human), UniProt Q9Y5Y4); assay: hCRTH2 receptor membranes radioligand (3H-PGD2) displacement assay; assay type: binding; conditions: 3H-PGD2 radioligand displacement, HEK293-hCRTH2 membranes
How it was run: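 Compound was first mixed with buffer, then 3H-PGD2 was added at 2.5 nM, and the reaction was started with hCRTH2 membranes from HEK293 cells at 20 μg/well. After 90 min at room temperature, mixtures were filtered and washed with ice-cold buffer, and retained radioactivity was counted.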

[2] = tested on: eosinophils; assay: Eosinophil shape change assay with human plasma; assay type: cell-based; conditions: Homo sapiens, Eosinophil, human plasma (50%), PGD2 100 nM activation, antagonistic activity
How it was run: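 Human polymorphonuclear cells stained with anti-CD49d-APC, combined with compound-preincubated human plasma (50% of final volume, 4×10^6 cells/ml) for 10 min at 37° C., then stimulated 5 min with 100 nM PGD2 and fixed. Flow cytometry scored percent eosinophils with increased forward scatter.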

hCRTH2 receptor, sequence (Q9Y5Y4 whole entry): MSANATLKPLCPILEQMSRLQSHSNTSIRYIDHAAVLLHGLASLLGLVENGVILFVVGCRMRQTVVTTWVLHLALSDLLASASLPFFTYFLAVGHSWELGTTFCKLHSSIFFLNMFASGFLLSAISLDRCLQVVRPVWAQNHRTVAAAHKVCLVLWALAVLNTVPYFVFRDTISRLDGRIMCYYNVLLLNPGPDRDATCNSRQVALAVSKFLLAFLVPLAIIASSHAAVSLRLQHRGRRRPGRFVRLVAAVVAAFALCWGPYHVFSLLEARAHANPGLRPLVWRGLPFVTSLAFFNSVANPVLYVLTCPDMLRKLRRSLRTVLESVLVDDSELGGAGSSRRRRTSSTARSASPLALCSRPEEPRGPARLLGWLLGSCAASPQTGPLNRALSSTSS

| Compound | IC50 [1] [nM] | IC50 [2] [nM] |
| --- | --- | --- |
| COc1ccc(CC(=O)O)cc1-c1ccc(F)c2c1CN(C(=O)CC(C)(C)c1cccc(F)c1)CC2 [Example 252, (3-{5-Fluoro-2-[3-(3-fluoro-phenyl)-3-methyl-butyryl]-1,2,3,4-tetrahydro-isoquinolin-8-yl}-4-methoxy-phenyl)-acetic acid] | 13.2 | 258 |
| CCOc1ccc(CC(=O)O)cc1-c1ccc(F)c2c1CN(C(=O)CC1(c3ccc(F)cc3)CC1)CC2 [Example 277, [4-Ethoxy-3-(5-fluoro-2-{2-[1-(4-fluoro-phenyl)-cyclopropyl]-acetyl}-1,2,3,4-tetrahydro-isoquinolin-8-yl)-phenyl]-acetic acid] | 1.9 | 21 |
| CCOc1ccc(CC(=O)O)cc1-c1ccc(F)c2c1CN(C(=O)CCc1ccc(F)cc1)CC2 [Example 310, (4-Ethoxy-3-{5-fluoro-2-[3-(4-fluoro-phenyl)-propionyl]-1,2,3,4-tetrahydro-isoquinolin-8-yl}-phenyl)-acetic acid] | 1.7 | 7 |
| CCOc1cc(CC(=O)O)ccc1-c1ccc(F)c2c1CN(C(=O)CCc1cccc(C)n1)CC2 [Example 321, (3-Ethoxy-4-{5-fluoro-2-[3-(6-methyl-pyridin-2-yl)-propionyl]-1,2,3,4-tetrahydro-isoquinolin-8-yl}-phenyl)-acetic acid] | 7.3 | 20 |
| CCOc1ccc(CC(=O)O)cc1-c1ccc(F)c2c1CN(C(=O)CCc1cccc(C)n1)CC2 [Example 329, (4-Ethoxy-3-{5-fluoro-2-[3-(6-methyl-pyridin-2-yl)-propionyl]-1,2,3,4-tetrahydro-isoquinolin-8-yl}-phenyl)-acetic acid] | 4.2 | 21 |
| CCOc1ccc(CC(=O)O)cc1-c1ccc(F)c2c1CN(C(=O)CCc1ccccn1)CC2 [Example 348, {4-Ethoxy-3-[5-fluoro-2-(3-pyridin-2-yl-propionyl)-1,2,3,4-tetrahydro-isoquinolin-8-yl]-phenyl}-acetic acid] | 2.7 | 16 |
| COc1ccc(CC(=O)O)cc1-c1ccc(F)c2c1CN(C(=O)CC(C)(C)c1ccc(F)cc1)CC2 [Example 363, (3-{5-Fluoro-2-[3-(4-fluoro-phenyl)-3-methyl-butyryl]-1,2,3,4-tetrahydro-isoquinolin-8-yl}-4-methoxy-phenyl)-acetic acid] | 2.4 | 20 |
| CCOc1ccc(CC(=O)O)cc1-c1ccc(F)c2c1CN(C(=O)O[C@@H](C)c1ccccc1)CC2 [Example 368, 8-(5-Carboxymethyl-2-ethoxy-phenyl)-5-fluoro-3,4-dihydro-1H-isoquinoline-2-carboxylic acid (S)-1-phenyl-ethyl ester] | 5.5 | 46 |
| CCOc1ccc(CC(=O)O)cc1-c1ccc(F)c2c1CN(C(=O)OCC1CCCC1)CC2 [Example 369, 8-(5-Carboxymethyl-2-ethoxy-phenyl)-5-fluoro-3,4-dihydro-1H-isoquinoline-2-carboxylic acid cyclopentylmethyl ester] | 8.7 | 266 |
| CCOc1ccc(CC(=O)O)cc1-c1ccc(F)c2c1CN(C(=O)OCCc1ccccc1)CC2 [Example 373, 8-(5-Carboxymethyl-2-ethoxy-phenyl)-5-fluoro-3,4-dihydro-1H-isoquinoline-2-carboxylic acid phenethyl ester] | 1.7 | 42 |
| CCOc1ccc(CC(=O)O)cc1-c1ccc(F)c2c1CN(C(=O)OC[C@H](C)c1ccccc1)CC2 [Example 374, 8-(5-Carboxymethyl-2-ethoxy-phenyl)-5-fluoro-3,4-dihydro-1H-isoquinoline-2-carboxylic acid (R)-2-phenyl-propyl ester] | 4.2 | 28 |
| CCOc1cc(CC(=O)O)ccc1-c1ccc(F)c2c1CN(C(=O)O[C@@H](C)c1ccccc1)CC2 [Example 389, 8-(4-Carboxymethyl-2-ethoxy-phenyl)-5-fluoro-3,4-dihydro-1H-isoquinoline-2-carboxylic acid (S)-1-phenyl-ethyl ester] | 16.7 | 122 |
| CCOc1ccc(CC(=O)O)cc1-c1ccc(F)c2c1CN(C(=O)OCc1ccccn1)CC2 [Example 394, 8-(5-Carboxymethyl-2-ethoxy-phenyl)-5-fluoro-3,4-dihydro-1H-isoquinoline-2-carboxylic acid pyridin-2-ylmethyl ester] | 1.2 | 12 |
| CCOc1cc(CC(=O)O)ccc1-c1ccc(F)c2c1CN(C(=O)OCC1CCCCC1)CC2 [Example 397, 8-(4-Carboxymethyl-2-ethoxy-phenyl)-5-fluoro-3,4-dihydro-1H-isoquinoline-2-carboxylic acid cyclohexylmethyl ester] | 6.8 | 15 |
| CCOc1ccc(CC(=O)O)cc1-c1ccc(F)c2c1CN(C(=O)OCc1ccc(F)cc1)CC2 [Example 398, 8-(5-Carboxymethyl-2-ethoxy-phenyl)-5-fluoro-3,4-dihydro-1H-isoquinoline-2-carboxylic acid 4-fluoro-benzyl ester] | 3.4 | 13 |
| CCOc1ccc(CC(=O)O)cc1-c1ccc(F)c2c1CN(C(=O)OCc1cccc(F)c1)CC2 [Example 399, 8-(5-Carboxymethyl-2-ethoxy-phenyl)-5-fluoro-3,4-dihydro-1H-isoquinoline-2-carboxylic acid 3-fluoro-benzyl ester] | 4.7 | 29 |
| CCOc1ccc(CC(=O)O)cc1-c1ccc(F)c2c1CN(C(=O)OCc1cc(F)ccc1F)CC2 [Example 401, 8-(5-Carboxymethyl-2-ethoxy-phenyl)-5-fluoro-3,4-dihydro-1H-isoquinoline-2-carboxylic acid 2,5-difluoro-benzyl ester] | 4.5 | 26 |

Continued, values first:

| IC50 [1] [nM] | IC50 [2] [nM] | Compound |
| --- | --- | --- |
| 2.8 | 101 | COc1ccc(CC(=O)O)cc1-c1ccc(F)c2c1CN(C(=O)CC1(c3ccccc3)CC1)CC2 [Example 258, (3-{5-Fluoro-2-[2-(1-phenyl-cyclopropyl)-acetyl]-1,2,3,4-tetrahydro-isoquinolin-8-yl}-4-methoxy-phenyl)-acetic acid] |
| 6.8 | 76 | CCOc1ccc(CC(=O)O)cc1-c1ccc(F)c2c1CN(C(=O)CC1(c3cccc(F)c3)CC1)CC2 [Example 275, [4-Ethoxy-3-(5-fluoro-2-{2-[1-(3-fluoro-phenyl)-cyclopropyl]-acetyl}-1,2,3,4-tetrahydro-isoquinolin-8-yl)-phenyl]-acetic acid] |
| 1.1 | 11 | COc1cc(CC(=O)O)ccc1-c1ccc(F)c2c1CN(C(=O)CC(C)(C)c1ccc(F)cc1)CC2 [Example 358, (4-{5-Fluoro-2-[3-(4-fluoro-phenyl)-3-methyl-butyryl]-1,2,3,4-tetrahydro-isoquinolin-8-yl}-3-methoxy-phenyl)-acetic acid] |
| 3.9 | 32 | CCOc1ccc(CC(=O)O)cc1-c1ccc(F)c2c1CN(C(=O)OCc1cnccn1)CC2 [Example 365, 8-(5-Carboxymethyl-2-ethoxy-phenyl)-5-fluoro-3,4-dihydro-1H-isoquinoline-2-carboxylic acid pyrazin-2-ylmethyl ester] |
| 4.2 | 65 | CCOc1ccc(CC(=O)O)cc1-c1ccc(F)c2c1CN(C(=O)OCc1ncc(C)cc1F)CC2 [Example 366, 8-(5-Carboxymethyl-2-ethoxy-phenyl)-5-fluoro-3,4-dihydro-1H-isoquinoline-2-carboxylic acid 3-fluoro-5-methyl-pyridin-2-ylmethyl ester] |
| 7 | 76 | CCOc1ccc(CC(=O)O)cc1-c1ccc(F)c2c1CN(C(=O)OCCC(C)C)CC2 [Example 370, 8-(5-Carboxymethyl-2-ethoxy-phenyl)-5-fluoro-3,4-dihydro-1H-isoquinoline-2-carboxylic acid 3-methyl-butyl ester] |
| 0.6 | 23 | CCOc1ccc(CC(=O)O)cc1-c1ccc(F)c2c1CN(C(=O)OCc1cccc(C)n1)CC2 [Example 371, 8-(5-Carboxymethyl-2-ethoxy-phenyl)-5-fluoro-3,4-dihydro-1H-isoquinoline-2-carboxylic acid 6-methyl-pyridin-2-ylmethyl ester] |
| 5.5 | 149 | CCOc1ccc(CC(=O)O)cc1-c1ccc(F)c2c1CN(C(=O)OCC1CC1)CC2 [Example 372, 8-(5-Carboxymethyl-2-ethoxy-phenyl)-5-fluoro-3,4-dihydro-1H-isoquinoline-2-carboxylic acid cyclopropylmethyl ester] |
| 6.3 | 59 | CCCCOC(=O)N1CCc2c(F)ccc(-c3cc(CC(=O)O)ccc3OCC)c2C1 [Example 376, 8-(5-Carboxymethyl-2-ethoxy-phenyl)-5-fluoro-3,4-dihydro-1H-isoquinoline-2-carboxylic acid butyl ester] |
| 3.4 | 123 | CCOc1ccc(CC(=O)O)cc1-c1ccc(F)c2c1CN(C(=O)OCC(C)C)CC2 [Example 377, 8-(5-Carboxymethyl-2-ethoxy-phenyl)-5-fluoro-3,4-dihydro-1H-isoquinoline-2-carboxylic acid isobutyl ester] |
| 2.6 | 18 | CCOc1ccc(CC(=O)O)cc1-c1ccc(F)c2c1CN(C(=O)OCC1CCCCC1)CC2 [Example 396, 8-(5-Carboxymethyl-2-ethoxy-phenyl)-5-fluoro-3,4-dihydro-1H-isoquinoline-2-carboxylic acid cyclohexylmethyl ester] |
| 12.8 | 21 | CCOc1ccc(CC(=O)O)cc1-c1ccc(F)c2c1CN(C(=O)OCc1ccccc1F)CC2 [Example 400, 8-(5-Carboxymethyl-2-ethoxy-phenyl)-5-fluoro-3,4-dihydro-1H-isoquinoline-2-carboxylic acid 2-fluoro-benzyl ester] |

Reference: patent US9255090B2, “Heterocyclyl derivatives and their use as prostaglandin D2 receptor modulators” (Actelion Pharmaceuticals Ltd., priority 2012, dated 2016)
